Laboratory results published in patent US4464385A, “Treatment of diabetic complications with hydantoins” (Alcon Laboratories, Inc., priority 1982, dated 1984).

Tested on: cataracts in rats
Assay: Prevention or retardation of cataracts in galactose-fed rats
Type: in vivo, rat
Details: for % of Total Eyes, N (nuclear cataract) / % of Total Eyes, S (snowflake) / Number of Eyes Observed, + (vacuole) / Number of Eyes Observed, - (Normal) / Number of Eyes Observed, N (nuclear cataract) / Number of Eyes Observed, S (snowflake) / Number of Eyes Observed, ± / % of Total Eyes, + (vacuole) / % of Total Eyes, - (Normal): 30% galactose diet, A,C,E 0.0025%, B,D 0.01%
In short: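 Twelve rats per treatment, after two days on chow, were fed compound/diet mixtures ad libitum from Study Day 1 for thirty days; the 0.01% level was designed for 20 mg/kg/day. Cataracts were scored per eye using ophthalmoscope and/or penlight.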

dl-spiro-(6-methylthio-chroman-4,4'-imidazolidine)-2',5'-dione
% of Total Eyes, N (nuclear cataract) (Study Day 14): 0%
% of Total Eyes, S (snowflake) (Study Day 14): 58.4%
Number of Eyes Observed, + (vacuole) (Study Day 14): 10 eyes
Number of Eyes Observed, - (Normal) (Study Day 14): 0 eyes
Number of Eyes Observed, N (nuclear cataract) (Study Day 14): 0 eyes
Number of Eyes Observed, S (snowflake) (Study Day 14): 14 eyes
Number of Eyes Observed, ± (Study Day 14): 0 eyes
% of Total Eyes, + (vacuole) (Study Day 16): 37.5%
% of Total Eyes, - (Normal) (Study Day 16): 0%
% of Total Eyes, N (nuclear cataract) (Study Day 16): 0%
% of Total Eyes, S (snowflake) (Study Day 16): 62.5%
Number of Eyes Observed, + (vacuole) (Study Day 16): 9 eyes
Number of Eyes Observed, - (Normal) (Study Day 16): 0 eyes
Number of Eyes Observed, N (nuclear cataract) (Study Day 16): 0 eyes
Number of Eyes Observed, S (snowflake) (Study Day 16): 15 eyes
Number of Eyes Observed, ± (Study Day 16): 0 eyes
% of Total Eyes, + (vacuole) (Study Day 18): 25.0%
% of Total Eyes, - (Normal) (Study Day 18): 0%
% of Total Eyes, N (nuclear cataract) (Study Day 18): 0%
% of Total Eyes, S (snowflake) (Study Day 18): 75.0%
Number of Eyes Observed, + (vacuole) (Study Day 18): 6 eyes
Number of Eyes Observed, - (Normal) (Study Day 18): 0 eyes
Number of Eyes Observed, N (nuclear cataract) (Study Day 18): 0 eyes
Number of Eyes Observed, S (snowflake) (Study Day 18): 0 eyes
Number of Eyes Observed, ± (Study Day 18): 0 eyes
% of Total Eyes, + (vacuole) (Study Day 20): 20.8%
% of Total Eyes, - (Normal) (Study Day 20): 0%
% of Total Eyes, N (nuclear cataract) (Study Day 20): 0%
% of Total Eyes, S (snowflake) (Study Day 20): 79.2%
Number of Eyes Observed, + (vacuole) (Study Day 20): 5 eyes
Number of Eyes Observed, - (Normal) (Study Day 20): 0 eyes
Number of Eyes Observed, N (nuclear cataract) (Study Day 20): 0 eyes
Number of Eyes Observed, S (snowflake) (Study Day 20): 19 eyes
Number of Eyes Observed, ± (Study Day 20): 0 eyes
% of Total Eyes, + (vacuole) (Study Day 22): 8.3%
% of Total Eyes, - (Normal) (Study Day 22): 0%
% of Total Eyes, N (nuclear cataract) (Study Day 22): 4.2%
% of Total Eyes, S (snowflake) (Study Day 22): 87.5%
Number of Eyes Observed, + (vacuole) (Study Day 22): 2 eyes
Number of Eyes Observed, - (Normal) (Study Day 22): 0 eyes
Number of Eyes Observed, N (nuclear cataract) (Study Day 22): 1 eyes
Number of Eyes Observed, S (snowflake) (Study Day 22): 21 eyes
Number of Eyes Observed, ± (Study Day 22): 0 eyes
% of Total Eyes, + (vacuole) (Study Day 24): 4.2%
% of Total Eyes, - (Normal) (Study Day 24): 0%
% of Total Eyes, N (nuclear cataract) (Study Day 24): 4.2%
% of Total Eyes, S (snowflake) (Study Day 24): 91.7%
Number of Eyes Observed, + (vacuole) (Study Day 24): 1 eyes
Number of Eyes Observed, - (Normal) (Study Day 24): 0 eyes
Number of Eyes Observed, N (nuclear cataract) (Study Day 24): 1 eyes
Number of Eyes Observed, S (snowflake) (Study Day 24): 22 eyes
Number of Eyes Observed, ± (Study Day 24): 0 eyes
% of Total Eyes, + (vacuole) (Study Day 26): 0%
% of Total Eyes, - (Normal) (Study Day 26): 0%
% of Total Eyes, N (nuclear cataract) (Study Day 26): 4.2%
% of Total Eyes, S (snowflake) (Study Day 26): 95.8%
Number of Eyes Observed, + (vacuole) (Study Day 26): 0 eyes
Number of Eyes Observed, - (Normal) (Study Day 26): 0 eyes
Number of Eyes Observed, N (nuclear cataract) (Study Day 26): 1 eyes
Number of Eyes Observed, S (snowflake) (Study Day 26): 23 eyes
Number of Eyes Observed, ± (Study Day 26): 0 eyes
% of Total Eyes, + (vacuole) (Study Day 28): 0%
% of Total Eyes, - (Normal) (Study Day 28): 0%
% of Total Eyes, N (nuclear cataract) (Study Day 28): 12.5%
% of Total Eyes, S (snowflake) (Study Day 28): 87.5%
Number of Eyes Observed, + (vacuole) (Study Day 28): 0 eyes
Number of Eyes Observed, - (Normal) (Study Day 28): 0 eyes
Number of Eyes Observed, N (nuclear cataract) (Study Day 28): 3 eyes
Number of Eyes Observed, S (snowflake) (Study Day 28): 21 eyes
Number of Eyes Observed, ± (Study Day 28): 0 eyes
% of Total Eyes, + (vacuole) (Study Day 30): 0%
% of Total Eyes, - (Normal) (Study Day 30): 0%
% of Total Eyes, N (nuclear cataract) (Study Day 30): 16.7%
% of Total Eyes, S (snowflake) (Study Day 30): 83.3%
Number of Eyes Observed, + (vacuole) (Study Day 30): 0 eyes
Number of Eyes Observed, - (Normal) (Study Day 30): 0 eyes
Number of Eyes Observed, N (nuclear cataract) (Study Day 30): 4 eyes
Number of Eyes Observed, S (snowflake) (Study Day 30): 20 eyes
Number of Eyes Observed, ± (Study Day 30): 0 eyes
inhibitory capacity relative to diastereomeric mixture of 6-sulfinyl derivative (fold greater): 1.5
time to vacuole formation, 0.0025% methylthio versus 0.01% sulfinyl (methylthio 0.0025%, sulfinyl 0.01% in diet): not different from each other
